In PubChem BioAssay AID330 (DTP/NCI, 2004) one finds T/C data, which are given here for 18 compounds.

The test system of the test is P388 leukemia ip, CD2F1 mice, survival T/C. As to the kind of experiment: NCI In Vivo Anticancer Drug Screen. Data for tumor model P388 Leukemia (intraperitoneal) in CD2F1 (CDF1) mice. The note with it: endpoint: median survival time, higher = longer survival. The procedure, abridged:
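Mice carrying the transplanted tumor received test compound or vehicle. Survival was recorded in each group, and the value is the treated-group measurement divided by that of the vehicle-treated control group.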

Setting [1] is: dose: 50.0 mg/kg/injection, schedule: Q01DX005 (ip), vehicle: saline.
[2] abbreviates: dose: 100.0 mg/kg/injection, schedule: Q01DX005 (ip), vehicle: saline.
The mark [3] stands for this setting: dose: 200.0 mg/kg/injection, schedule: Q01DX005 (ip), vehicle: saline.
Setting [4] is: dose: 50.0 mg/kg/injection, schedule: Q01DX005 (ip), vehicle: Klucel (hydroxypropylcellulose) (HPC).
Where [5] appears, read: dose: 50.0 mg/kg/injection, schedule: Q01DX009 (ip), vehicle: saline with Tween-80.
The mark [6] stands for this setting: dose: 100.0 mg/kg/injection, schedule: Q01DX009 (ip), vehicle: saline with Tween-80.
Setting [7] is: dose: 100.0 mg/kg/injection, schedule: Q01DX009 (ip), vehicle: saline.
The mark [8] stands for this setting: dose: 25.0 mg/kg/injection, schedule: Q01DX005 (ip), vehicle: saline with Tween-80.
[9] abbreviates: dose: 50.0 mg/kg/injection, schedule: Q01DX005 (ip), vehicle: saline with Tween-80.
Setting [10] is: dose: 100.0 mg/kg/injection, schedule: Q01DX005 (ip), vehicle: saline with Tween-80.
Where [11] appears, read: dose: 200.0 mg/kg/injection, schedule: Q01DX005 (ip), vehicle: saline with Tween-80.
[12] abbreviates: dose: 12.5 mg/kg/injection, schedule: Q01DX009 (ip), vehicle: Klucel (hydroxypropylcellulose) (HPC).

Molecules are shown by their SMILES. Several values for one entry are separate records, joined by “and”; a condition that tells them apart may be missing. Equal entries are not always repeated. Toxic doses and inconclusive results are not listed.

Turning to `O=c1cc[nH]c(=O)n1C1OC(CO)C(O)C1O` (stereo not given), the T/C under setting [1] was 108 % of control; the T/C under setting [2] is 99 % of control; the T/C under setting [3] was 102 % of control; the T/C (dose: 400.0 mg/kg/injection, schedule: Q01DX005 (ip), vehicle: saline) is 98 % of control.
Consider `CC(=O)CCC(=O)[O][Bi]([c]1ccccc1)[c]1ccccc1`, for which the T/C runs as follows: under setting [4], 110 % of control; (dose: 100.0 mg/kg/injection, schedule: Q01DX005 (ip), vehicle: Klucel (hydroxypropylcellulose) (HPC)) 114 % of control; (dose: 200.0 mg/kg/injection, schedule: Q01DX005 (ip), vehicle: Klucel (hydroxypropylcellulose) (HPC)) 114 % of control.
Take `O=C1CSC(=S)N1c1ccc(F)cc1F`: the T/C is 97 % of control (dose: 50.0 mg/kg/injection, schedule: Q01DX009 (ip), vehicle: suspension in saline); 100 % of control (dose: 100.0 mg/kg/injection, schedule: Q01DX009 (ip), vehicle: suspension in saline); 100 % of control (dose: 200.0 mg/kg/injection, schedule: Q01DX009 (ip), vehicle: suspension in saline).
For the compound `CSCNC(=S)Nc1ccc(Cl)c(Cl)c1`, the T/C is 100 % of control under setting [5] and 107 % of control under setting [6].
In the case of `CCCCCCCC[N+](C)([O-])CCCCCC[N+](C)([O-])CCCCCCCC` (stereo not given), the T/C was 99 % of control (dose: 50.0 mg/kg/injection, schedule: Q01DX009 (ip), vehicle: saline) and 94 % of control under setting [7].
`C/C(=C\c1ccccc1)c1ccccn1`: the T/C is 99 % of control under setting [1], 105 % of control under setting [2] and 113 % of control under setting [3].
Regarding `COc1cc2c(c(OC)c1OC)CCc1cn[nH]c1-2`, the T/C reads like this: (dose: 100.0 mg/kg/injection, schedule: Q01DX001 (ip), vehicle: Klucel (hydroxypropylcellulose) (HPC)) 116 % of control; (dose: 200.0 mg/kg/injection, schedule: Q01DX001 (ip), vehicle: Klucel (hydroxypropylcellulose) (HPC)) 123 % of control; (dose: 400.0 mg/kg/injection, schedule: Q01DX001 (ip), vehicle: Klucel (hydroxypropylcellulose) (HPC)) 116 % of control.
As to `CCN(CC)c1cc(C(=O)O)cc(N(CC)CC)n1`, the T/C by setting is: (dose: 6.25 mg/kg/injection, schedule: Q01DX005 (ip), vehicle: sodium bicarbonate) 104 % of control; (dose: 12.5 mg/kg/injection, schedule: Q01DX005 (ip), vehicle: Klucel (hydroxypropylcellulose) (HPC)) 98 % of control and 100 % of control; (dose: 12.5 mg/kg/injection, schedule: Q01DX005 (ip), vehicle: sodium bicarbonate) 114 % of control; (dose: 25.0 mg/kg/injection, schedule: Q01DX005 (ip), vehicle: Klucel (hydroxypropylcellulose) (HPC)) 98 % of control and 106 % of control; (dose: 25.0 mg/kg/injection, schedule: Q01DX005 (ip), vehicle: sodium bicarbonate) 120 % of control; under setting [4], 100 % of control and 120 % of control and 123 % of control. Besides, under “dose: 50.0 mg/kg/injection, schedule: Q01DX005 (ip), vehicle: sodium bicarbonate”, the T/C is 121 % of control.
With `CCOC(=O)c1oc2cc(O)ccc2c(=O)c1-c1ccc(OC)c(OC)c1`, the T/C is 96 % of control (dose: 60.0 mg/kg/injection, schedule: Q01DX005 (ip), vehicle: saline with Tween-80); 87 % of control (dose: 120.0 mg/kg/injection, schedule: Q01DX005 (ip), vehicle: saline with Tween-80); 86 % of control (dose: 240.0 mg/kg/injection, schedule: Q01DX005 (ip), vehicle: saline with Tween-80).
In the case of `[N-]=[N+]=CC(=O)C1OC1c1ccc2ccccc2c1` (stereo not given), the T/C is 93 % of control under setting [8], 100 % of control under setting [9], 99 % of control under setting [10] and 105 % of control under setting [11].
`CCSC(=Nc1nc2ccc(NC(C)=O)cc2s1)SCC`: the T/C (dose: 6.25 mg/kg/injection, schedule: Q01DX009 (ip), vehicle: Klucel (hydroxypropylcellulose) (HPC)) was 97 % of control; the T/C under setting [12] is 101 % of control; the T/C (dose: 25.0 mg/kg/injection, schedule: Q01DX009 (ip), vehicle: Klucel (hydroxypropylcellulose) (HPC)) is 98 % of control.
Turning to `Nc1nc(=S)c2ncn(C3CC(O)C(CO)O3)c2[nH]1` (stereo not given), the T/C is 118 % of control (dose: 10.0 mg/kg/injection, schedule: Q01DX009 (ip), vehicle: Klucel (hydroxypropylcellulose) (HPC)); 118 % of control (dose: 12.5 mg/kg/injection, schedule: Q01DX005 (ip), vehicle: saline); 101 % of control (dose: 12.5 mg/kg/injection, schedule: Q01DX005 (iv), vehicle: saline); 122 % of control under setting [12]; 95 % of control (dose: 20.0 mg/kg/injection, schedule: Q01DX009 (ip), vehicle: Klucel (hydroxypropylcellulose) (HPC)); 109 % of control (dose: 25.0 mg/kg/injection, schedule: Q01DX005 (ip), vehicle: saline). In addition, the T/C is, setting by setting: (dose: 25.0 mg/kg/injection, schedule: Q01DX005 (iv), vehicle: saline) 102 % of control; (dose: 25.0 mg/kg/injection, schedule: Q01DX009 (ip), vehicle: saline sonified) 168 % of control; (dose: 25.0 mg/kg/injection, schedule: Q01DX009 (ip), vehicle: saline) 117 % of control; under setting [1], 109 % of control; (dose: 50.0 mg/kg/injection, schedule: Q01DX005 (iv), vehicle: saline) 102 % of control and 106 % of control; (dose: 50.0 mg/kg/injection, schedule: Q01DX009 (ip), vehicle: Klucel (hydroxypropylcellulose) (HPC)) 118 % of control. Moreover, the T/C runs as follows: under setting [5], 162 % of control; (dose: 100.0 mg/kg/injection, schedule: Q01DX005 (iv), vehicle: saline) 103 % of control and 108 % of control; (dose: 100.0 mg/kg/injection, schedule: Q01DX009 (ip), vehicle: Klucel (hydroxypropylcellulose) (HPC)) 113 % of control; under setting [7], 169 % of control; under setting [3], 153 % of control; (dose: 200.0 mg/kg/injection, schedule: Q01DX005 (iv), vehicle: saline) 122 % of control. For the same compound, for the setting “dose: 200.0 mg/kg/injection, schedule: Q01DX009 (ip), vehicle: saline”, the T/C was 114 % of control.
As for `CS(C)(O)NC(N)=O`, the T/C runs as follows: (dose: 50.0 mg/kg/injection, schedule: Q01DX005 (ip), vehicle: DMSO) 121 % of control; (dose: 100.0 mg/kg/injection, schedule: Q01DX005 (ip), vehicle: DMSO) 119 % of control; (dose: 100.0 mg/kg/injection, schedule: Q01DX005 (ip), vehicle: other) 121 % of control; (dose: 200.0 mg/kg/injection, schedule: Q01DX005 (ip), vehicle: DMSO) 114 % of control; (dose: 400.0 mg/kg/injection, schedule: Q01DX005 (ip), vehicle: DMSO) 124 % of control.
Regarding `O=C1C(Br)=Cc2cccc3cccc1c23`, the T/C reads like this: (dose: 25.0 mg/kg/injection, schedule: Q01DX009 (ip), vehicle: saline with Tween-80) 100 % of control; under setting [5], 100 % of control; under setting [6], 100 % of control.
Take `CCN(CC)CCNc1ccc(COC(=O)Nc2ccccc2)c2sc3ccccc3c(=O)c12`: the T/C (dose: 6.25 mg/kg/injection, schedule: Q01DX005 (ip), vehicle: Klucel + Tween-80) is 111 % of control.
Consider `Cc1ccc2c(c1)P(=O)(c1ccccc1C(O)(C(F)(F)F)C(F)(F)F)c1cc(C)ccc1O2`, for which the T/C is, setting by setting: (dose: 100.0 mg/kg/injection, schedule: Q04DX002 (ip), vehicle: Klucel (hydroxypropylcellulose) (HPC)) 101 % of control; (dose: 200.0 mg/kg/injection, schedule: Q04DX002 (ip), vehicle: Klucel (hydroxypropylcellulose) (HPC)) 94 % of control; (dose: 400.0 mg/kg/injection, schedule: Q04DX002 (ip), vehicle: Klucel (hydroxypropylcellulose) (HPC)) 90 % of control.
Consider `CC(=O)Nc1sccc1S(=O)(=O)c1ccsc1NC(C)=O`, for which the T/C by setting is: (dose: 100.0 mg/kg/injection, schedule: Q04DX002 (ip), vehicle: saline with Tween-80) 100 % of control; (dose: 200.0 mg/kg/injection, schedule: Q04DX002 (ip), vehicle: saline with Tween-80) 105 % of control; (dose: 400.0 mg/kg/injection, schedule: Q04DX002 (ip), vehicle: saline with Tween-80) 98 % of control.
With `CCCC1C2C=CC(C(S(=O)(=O)c3ccccc3)C2)N1C(=O)OCC` (stereo not given), the T/C under setting [8] was 100 % of control, the T/C under setting [9] was 103 % of control, the T/C under setting [10] was 102 % of control and the T/C under setting [11] was 102 % of control.
